Measured values taken from EP0852233A1, “CYCLOSPORIN PHOSPHATE DERIVATIVES AND MEDICINAL COMPOSITION” (NIPPON SHINYAKU COMPANY, LIMITED, priority 1995, dated 1997).
≈ marks a conversion by molar mass, not a printed value.

Experiments:
[1] = rat, in vivo
Method: Nephrotoxicity was investigated by the lithium clearance method.
Each sample was adjusted to a concentration of 5 mg/ml and 2 ml/kg was administered intraperitonally for 7 consecutive days. The control group similarly received the solvent used for preparation of the sample solutions. […] On the following day the blood was drawn from the jugular vein and the animals were placed in metabolism cages. Under feeding with the lithium diet, the 24-hour urine was collected and the urine volume was measured using a measuring cylinder. After the rats were taken out from the metabolism cages, blood sampling was immediately carried out and the mean lithium value of two measurements before and after urine collection was taken as the blood lithium value of the corresponding rat. The body weight of rats was determined immediately after they were taken out from metabolism cages. To determine the blood lithium concentration, each blood sample was centrifuged at 3000 rpm for 10 minutes and the plasma was taken for determination. […] 24-hr CLi /100 g = urine volume x 100/rat body weight · urinary Li value/blood Li value [formula]

[2] = tested on: IL-2 production of T cells (Jurkat cells); experiment: IL-2 production inhibitory activity (Jurkat cells stimulated with concanavalin A; IL-2 determined by CTLL-2 bioassay/MTT); type: cell-based, human; settings: 24 hours
Method: It is known that the immunosuppressant action of cyclosporins is based on inhibition of the IL-2 gene of T cells. Therefore, the biological activity of cyclosporins can be assayed using inhibition of the IL-2 production of T cells as an indicator. Accordingly, using Jurkat cells (a tumor cell line derived from human T cells), the biological activity of the compound of the invention was evaluated.
Jurkat cells grown to the logarithmic phase in RPMI-1640 medium (Flow Laboratories; 10% heat-inactivated FBS, 300 mg/l L-glutamine, 50 U/ml streptomycin, 50 U/ml penicillin, 25 mM Hepes, 50 µM 2-mercaptoethanol) were seeded onto a 96-well microtiter plate at a density of 8x10^5 cells/ml, 0.1 ml/well. Then, as an IL-2 production inducer, 10 µl of concanavalin A was added, followed by addition of 20 µl each of samples varying in concentration. After the final volume was adjusted to 0.2 ml/well with the medium, the plate was incubated in a CO2 incubator at 37°C for 24 hours. After completion of culture, the reaction mixture in each well was centrifuged (1000 rpm x 5 min.) and the supernatant was recovered.
Determination of IL-2 was carried out by the bioassay using CTLL-2 cells which are known as IL-2-dependent cells.
To 0.1 ml of CTLL-2 cells (40,000/ml) in logarithmic phase, 0.1 ml of an appropriate dilution of the above supernatant was added, and the cells were cultured in a CO2 incubator at 37°C for 48 hours. After completion of culture, the cell growth was determined by the MTT assay. The relation between growth of CTLL-2 cells and IL-2 concentration was previously plotted for a recombinant IL-2 and using the plots as a standard curve, the IL-2 concentration was estimated from the degree of growth of CTLL-2 cells.
The IL-2 production inhibition rate was calculated by means of the following equation (1) and the IC50 value of each sample was calculated from the inhibition rates at various concentrations. IL-2 production inhibition rate (%) = (1-(IL-2 production by cells in presence of sample)/(IL-2 production by cells in absence of sample)) x100 [formula]

physchem = settings: water
Method: From each test tube, 250 µl was taken into a centrifuge tube and centrifuged (10,000 rpm x 10 min.). The supernatant was recovered, diluted with distilled water, and subjected to HPLC for assay.
Column: Inertsil C8 (4.6x250 mm) Mobile phase: acetonitrile-methanol-distilled water-phosphoric acid (50:35:15:0.005) Column temperature: 75°C Detection: UV 210 nm

[3] = Absorption after oral administration and release of the phosphate group (blood concentration by HPLC); type: in vivo; settings: SD rats, oral 30 mg/kg; for level at 0.5 h / level at 1 h / level at 2 h / level at 4 h / level at 8 h / level at 24 h: rat, blood, read-out: Blood concentration of the administered compound (unchanged)
Method: Each blood sample was centrifuged (10,000 rpm x 5 min.) and the supernatant was applied onto a pretreatment column (Sep-Pack C18 Vac, Waters). After the column was rinsed with distilled water and 40% methanol, elution was carried out in 10% steps from 50% methanol to 100% methanol and 50 µl of the eluate was injected into an HPLC. From the concentration value thus found, the blood concentration was calculated.

IL-2 production inhibitory concentration (IC50 ng/ml) [2] [ng/mL] | solubility thermodynamic at 30 min (physchem) [µg/mL] | Sum of blood concentrations up to 24 hr, administered compound (unchanged) [3] [ng/mL] | level at 0.5 h ([3]; 0.5 hr after administration) [ng/mL] | level at 1 h ([3]; 1 hr after administration) [ng/mL] | level at 2 h ([3]; 2 hr after administration) [ng/mL] | level at 4 h ([3]; 4 hr after administration) [ng/mL] | level at 8 h ([3]; 8 hr after administration) [ng/mL] | level at 24 h ([3]; 24 hr after administration) [ng/mL] | SMILES | further results
12 | 29.7 (≈ 24.4 µM) | – | – | – | – | – | – | – | C/C=C/C[C@@H](C)[C@@H](O)[C@H]1C(=O)N[C@@H]([C@@H](C)O)C(=O)N(C)CC(=O)N(C)[C@@H](CC(C)C)C(=O)N[C@@H](C(C)C)C(=O)N(C)[C@@H](CC(C)C)C(=O)N[C@@H](C)C(=O)N[C@H](C)C(=O)N(C)[C@@H](CC(C)C)C(=O)N(C)[C@@H](CC(C)C)C(=O)N(C)[C@@H](C(C)C)C(=O)N1C [Cyclosporin C] | nephrotoxicity [1]: nephrotoxic
6 | 35.1 (≈ 28.8 µM) | 8754 | 895 | 4320 | 1920 | 1020 | 533 | 69 | C/C=C/C[C@@H](C)[C@@H](O)[C@H]1C(=O)N[C@@H](CC)C(=O)N(C)CC(=O)N(C)[C@@H](CC(C)C)C(=O)N[C@@H](C(C)C)C(=O)N(C)[C@@H](CC(C)C)C(=O)N[C@@H](C)C(=O)N[C@H](CO)C(=O)N(C)[C@@H](CC(C)C)C(=O)N(C)[C@@H](CC(C)C)C(=O)N(C)[C@@H](C(C)C)C(=O)N1C [[D-serine^8]cyclosporin A, reference compound] | –
– | – | 3053 | 391 | 813 | 971 | 536 | 311 | 31 | C/C=C/C[C@@H](C)[C@@H](O)[C@H]1C(=O)N[C@@H](CC)C(=O)N(C)CC(=O)N(C)[C@@H](CC(C)C)C(=O)N[C@@H](C(C)C)C(=O)N(C)[C@@H](CC(C)C)C(=O)N[C@@H](C)C(=O)N[C@H](COP(=O)(O)O)C(=O)N(C)[C@@H](CC(C)C)C(=O)N(C)[C@@H](CC(C)C)C(=O)N(C)[C@@H](C(C)C)C(=O)N1C [[Phosphono-D-serine^8]cyclosporin A, [phosphono-D-serine^8]cyclosporin A] | Sum of blood concentrations up to 24 hr, Sum of (2) and (3) [3]: 13501 ng/mL; Sum of blood concentrations up to 24 hr, [D-serine^8]cyclosporin A which released phosphoric acid [3]: 10448 ng/mL; Blood concentration of [D-serine^8]cyclosporin A which released phosphoric acid ([3]; 0.5 hr after administration): 1413 ng/mL; Blood concentration, Sum of (2) and (3) (released plus unchanged compound) ([3]; 0.5 hr after administration): 1804 ng/mL; Blood concentration of [D-serine^8]cyclosporin A which released phosphoric acid ([3]; 1 hr after administration): 3115 ng/mL; Blood concentration, Sum of (2) and (3) (released plus unchanged compound) ([3]; 1 hr after administration): 3928 ng/mL; Blood concentration of [D-serine^8]cyclosporin A which released phosphoric acid ([3]; 2 hr after administration): 2516 ng/mL; Blood concentration, Sum of (2) and (3) (released plus unchanged compound) ([3]; 2 hr after administration): 3437 ng/mL; Blood concentration of [D-serine^8]cyclosporin A which released phosphoric acid ([3]; 4 hr after administration): 2391 ng/mL; Blood concentration, Sum of (2) and (3) (released plus unchanged compound) ([3]; 4 hr after administration): 2927 ng/mL; Blood concentration of [D-serine^8]cyclosporin A which released phosphoric acid ([3]; 8 hr after administration): 910 ng/mL; Blood concentration, Sum of (2) and (3) (released plus unchanged compound) ([3]; 8 hr after administration): 1221 ng/mL; Blood concentration of [D-serine^8]cyclosporin A which released phosphoric acid ([3]; 24 hr after administration): 103 ng/mL; Blood concentration, Sum of (2) and (3) (released plus unchanged compound) ([3]; 24 hr after administration): 134 ng/mL
49 | – | – | – | – | – | – | – | – | C/C=C/C[C@@H](C)[C@@H](O)[C@H]1C(=O)N[C@@H]([C@@H](C)OP(=O)(O)O)C(=O)N(C)CC(=O)N(C)[C@@H](CC(C)C)C(=O)N[C@@H](C(C)C)C(=O)N(C)[C@@H](CC(C)C)C(=O)N[C@@H](C)C(=O)N[C@H](C)C(=O)N(C)[C@@H](CC(C)C)C(=O)N(C)[C@@H](CC(C)C)C(=O)N(C)[C@@H](C(C)C)C(=O)N1C [[Phosphonothreonine^2]cyclosporin A, [phosphonothreonine^2]cyclosporin A] | –
